In US20260216067A1, “CARRIER AS A MULTIFUNCTIONAL SYSTEM” (LIFESOME THERAPEUTICS, S.L., priority 2022, published 2026):

Key:
PC3 = assay: MTT cell viability test, PC3; format: cell-based; conditions: Homo sapiens, PC-3, 72 h, up to 3 days, read-out: tumor cell viability
Method: (§1) Ohmline nanoparticles were used to deliver docetaxel into different cancer cell lines. Cell viability was determined using tetrazolium salt reduction method (MTT)(CyQUANT™ MTT Cell Viability Assary, Thermo Fisher Scientific product V13154: https://www.thermofisher.com/order/catalog/product/V13154?ef_id=4431670897231bd9f4af0 436727d3335: G: s&s_kwcid=AL!3652!10!77240846955634!77240903742099&cid=bid_pca_i va_r01_co_cp1359_pjt0000_bid00000_Ose_bng_nt_pur_con&msclkid=4431670897231bd9f 4af0436727d3335 #/V13154), that reflects the number of viable cells. 6500 cells were seeded at day=0 in a 48 wells plate. Each well was filled up with the regular medium of the cancer cell. At day=1 the medium was aspirated and replaced with new media for each formulation to be tested. Cells were incubated up to 3 days.
(§2) At the end of the incubation, the medium was aspirated and replaced with MTT solution at 0.5 mg/ml concentration. The plate was incubated at 37° C. by 30-45 min. After incubation the supernatant was aspirated, and the formed crystals dissolved with DMSO and gently agitation at room temperature protected from the light. 200 μl were transferred from each well to 96 well plates to measure the absorbance at 570 nm. (see FIGS. 8A, 8B and 8C).
(§3) Ohmline control at 1 and 5 μM, in MLV formulation.
(§4) DOX is docetaxel at 0,5 and 1 nM, in DMSO. […]

MDA MB 435 = assay: MTT cell viability test, MDA MB 435; format: cell-based; conditions: Homo sapiens, 72 h, up to 3 days, read-out: tumor cell viability
Method: as §1, §2, §3, §4

MCF7 = assay: MTT cell viability test, MCF7; format: cell-based; conditions: Homo sapiens, 72 h, up to 3 days, read-out: tumor cell viability
Method: as §1, §2, §3, §4

MDA MB 231 = assay: MTT cell viability test, MDA MB 231; format: cell-based; conditions: Homo sapiens, 72 h, up to 3 days, read-out: tumor cell viability
Method: as §1, §2, §3, §4

SW620 = assay: MTT cell viability test, SW620; format: cell-based; conditions: Homo sapiens, SW-620, 72 h, up to 3 days, read-out: tumor cell viability
Method: as §1, §2, §3, §4

[1] = tested on: MDA-MB-231, HCT116, PC3, HaCaT and fibroblasts; conditions: 25 μM for 48 h; cited from earlier work
[2] = ADME studies, distribution; format: in vivo
[3] = tested on: SK3-expressing cancer cells; conditions: at 10 nM; cited from earlier work
[4] = Ames tests; cited from earlier work
[5] = cited from earlier work
[6] = cited from earlier work; remark: listed apart in the source
[7] = 15 mg/Kg, up to 4 months treatment; cited from earlier work
SK3 channel = SK3 channel (Homo sapiens, UniProt Q9UGI6); conditions: cited from earlier work
IKCa/SK4 channel = IKCa/SK4 channel (Homo sapiens, UniProt O15554); conditions: cited from earlier work
Chain of IKCa/SK4 channel (O15554 whole entry): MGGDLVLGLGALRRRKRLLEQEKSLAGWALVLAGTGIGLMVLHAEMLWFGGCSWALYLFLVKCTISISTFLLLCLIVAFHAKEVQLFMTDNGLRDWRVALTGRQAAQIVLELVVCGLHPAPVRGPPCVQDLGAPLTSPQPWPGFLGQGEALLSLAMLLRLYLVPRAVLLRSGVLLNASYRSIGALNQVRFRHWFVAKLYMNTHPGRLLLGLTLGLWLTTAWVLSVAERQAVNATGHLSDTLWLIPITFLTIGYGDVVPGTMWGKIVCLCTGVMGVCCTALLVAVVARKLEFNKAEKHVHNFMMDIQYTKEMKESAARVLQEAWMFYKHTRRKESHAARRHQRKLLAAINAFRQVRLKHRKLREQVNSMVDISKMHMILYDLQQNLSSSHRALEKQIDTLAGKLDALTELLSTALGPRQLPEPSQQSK

SK2 channel = SK2 channel (Homo sapiens, UniProt Q9H2S1); conditions: cited from earlier work
Chain of SK2 channel (Q9H2S1 whole entry): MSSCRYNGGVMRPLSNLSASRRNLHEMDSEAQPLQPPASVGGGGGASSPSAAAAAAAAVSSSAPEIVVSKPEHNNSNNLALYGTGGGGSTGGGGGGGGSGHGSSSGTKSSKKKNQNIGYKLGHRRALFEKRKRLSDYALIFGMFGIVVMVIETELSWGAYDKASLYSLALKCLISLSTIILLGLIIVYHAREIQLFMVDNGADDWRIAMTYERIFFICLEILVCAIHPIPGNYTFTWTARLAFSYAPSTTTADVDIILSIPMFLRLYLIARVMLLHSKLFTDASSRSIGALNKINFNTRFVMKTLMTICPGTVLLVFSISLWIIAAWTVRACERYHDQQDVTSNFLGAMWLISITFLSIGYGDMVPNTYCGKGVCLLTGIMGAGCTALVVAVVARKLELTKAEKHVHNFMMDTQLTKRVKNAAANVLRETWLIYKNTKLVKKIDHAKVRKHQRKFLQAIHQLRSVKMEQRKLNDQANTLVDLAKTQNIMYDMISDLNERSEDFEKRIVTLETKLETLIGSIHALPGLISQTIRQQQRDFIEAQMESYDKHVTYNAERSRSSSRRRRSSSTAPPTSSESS

SKCa channels = conditions: cited from earlier work
protein kinase C (PKC) = conditions: cited from earlier work
[8] = molecular target: receptors for platelet activating factor (PAF) (Homo sapiens, UniProt P25105); conditions: cited from earlier work
Chain of receptors for platelet activating factor (PAF) (P25105 whole entry): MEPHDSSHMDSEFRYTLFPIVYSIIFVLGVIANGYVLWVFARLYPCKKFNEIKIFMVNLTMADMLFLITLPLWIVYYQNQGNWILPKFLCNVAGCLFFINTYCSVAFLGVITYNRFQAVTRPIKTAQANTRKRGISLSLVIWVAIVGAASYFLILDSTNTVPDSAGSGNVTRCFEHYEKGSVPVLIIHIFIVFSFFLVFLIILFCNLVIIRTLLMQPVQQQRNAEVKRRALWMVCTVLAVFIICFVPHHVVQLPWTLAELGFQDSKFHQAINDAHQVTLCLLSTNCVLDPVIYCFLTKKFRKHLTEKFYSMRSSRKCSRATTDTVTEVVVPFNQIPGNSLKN

[9] = tested on: receptors for lysophosphatidic acid (LPA); conditions: cited from earlier work
SK3-expressing cells = conditions: in vivo; cited from earlier work
[10] = rodents; no observable tissue damage by a pathologist; cited from earlier work

SMILES: CC(=O)O[C@@]12CO[C@@H]1C[C@H](O)[C@@]1(C)C(=O)[C@H](O)C3=C(C)[C@@H](OC(=O)[C@H](O)[C@@H](NC(=O)OC(C)(C)C)c4ccccc4)C[C@@](O)([C@@H](OC(=O)c4ccccc4)[C@H]21)C3(C)C [DOX, docetaxel]
- viability at 0.0005 µM (PC3; DOX 0.5 nM in DMSO): 79%
- viability at 0.001 µM (PC3; DOX 1 nM in DMSO): 73%
- viability at 0.0005 µM (MDA MB 435; DOX 0.5 nM in DMSO): 100%
- viability at 0.001 µM (MDA MB 435; DOX 1 nM in DMSO): 69%
- viability at 0.0005 µM (MCF7; DOX 0.5 nM in DMSO): 97%
- viability at 0.001 µM (MCF7; DOX 1 nM in DMSO): 84%
- viability at 0.0005 µM (MDA MB 231; DOX 0.5 nM in DMSO): 72%
- viability at 0.001 µM (MDA MB 231; DOX 1 nM in DMSO): 73%
- viability at 0.0005 µM (SW620; DOX 0.5 nM in DMSO): 99%
- viability at 0.001 µM (SW620; DOX 1 nM in DMSO): 92%

SMILES: CCCCCCCCCCCCCCCCCCOCC(COP(=O)([O-])OCC[N+](C)(C)C)OC (centres unmarked) [Edelfosine]
- cells still alive [1]: ~0%

SMILES: CCCCCCCCCCCCCCCCOCC(COC1OC(CO)C(OC2OC(CO)C(O)C(O)C2O)C(O)C1O)OC (centres unmarked) [Ohmline, 1-O-hexadecyl-2-O-methyl-sn-glycero-3-lactose]
- distribution to brain [2]: able to cross the blood brain barrier
- reduction of migration of SK3-expressing cancer cells (efficiency) [3]: 50%
- mutagenic potential [4]: no mutagenic potential
- micronuclei test effect ([5]; at 100 μM): weak positive effect
- in vitro concentrations with no toxicity or genotoxicity ([5]; concluded from Ames and micronuclei tests): lower than 10 μM
- persistence in brain ([6]; after the end of administration): present in brain still two weeks after the end of its administration
- incorporation in tissues ([6]; stomach, intestine, kidney, liver, heart and brain): incorporated in the tissues tested
- acute toxicity [7]: no acute toxicity
- IC50 (SK3 channel; SK3 channel): 300 nM
- potency SK3 versus SK1 channel (SK3 channel): greater for SK3 channel than for SK1 channel
- effect on IKCa/SK4 channel (IKCa/SK4 channel): did not affect
- effect on SK2 channel (SK2 channel): only slightly but not significantly affected
- displacement of apamin from SKCa channels (SKCa channels): did not displace
- effect on protein kinase C (PKC) (protein kinase C (PKC)): no effect
- effect on receptors for platelet activating factor (PAF) [8]: no effect
- effect on receptors for lysophosphatidic acid (LPA) [9]: no effect
- metastasis development (SK3-expressing cells): reduce not only bone metastasis development but also lung and lymph node metastases
- tolerance and safety [10]: good tolerance and an apparent safety
